According to article PMC10950897, “VCF1 is a p97/VCP cofactor promoting recognition of ubiquitylated p97-UFD1-NPL4 substrates” (Nature Communications, 2024):
Blank lines part the entries; values can stand above or below the substance they belong to.

Columns and labels:
Ub(G76V)-GFP, U2OS cells = test: QIBC of Ub(G76V)-GFP after siRNA; assay type: cell-based, human; details: siRNA 20 nM, QIBC >10,000 cells
Protocol: (§1) U2OS (catalog no. HTB-96) cells were obtained from ATCC. HEK293-EBNA1-6E cells were a kind gift from Yves Durocher (National Research Council Canada, Montreal, Canada). All mammalian cell lines were cultured under standard conditions at 37 °C and 5% CO2 in DMEM (Thermo) supplemented with 10% FBS (v/v) and penicillin-streptomycin (Thermo). Recombination cloning-compatible U2OS cells were generated using the Flp-In T-Rex Core Kit (Thermo) according to the manufacturer’s instructions and maintained under selection using Blasticidin (Invivogen) and Zeocin (Thermo). To generate cell lines stably expressing GFP-VCF1, U2OS Flp-In T-Rex cells (Thermo) were co-transfected with GFP-VCF1 constructs and pOG44 (Thermo) plasmids, followed by selection with Hygromycin (Invitrogen). Single clones were carefully screened for uniform expression of ectopic GFP-VCF1 at low levels and maintained under selection with Blasticidin and Hygromycin. To induce GFP-VCF1 expression, cells were treated with Doxycycline (DOX) (0.5 µg/ml) for 16 h. U2OS cell lines stably expressing Ub(G76V)-GFP or Ub(G76V)-GFP-20AA were described previously. A U2OS cell line stably expressing Ub(G76V)-GFP-NES was generated under G418 (Invivogen) selection. […]
Mammalian cells grown on coverslips were fixed in formalin buffer (VWR) for 15 min at room temperature (RT). […] Quantitative image-based cytometry (QIBC) was performed as described. […]

[1] = tested on: GFP-VCF1 WT interactome, U2OS cells; test: GFP IP mass spectrometry of VCF1-interacting proteins, non-denaturing EBC buffer (+DOX/-DOX); assay type: binding, human
Protocol: (§2) U2OS (catalog no. HTB-96) cells were obtained from ATCC. HEK293-EBNA1-6E cells were a kind gift from Yves Durocher (National Research Council Canada, Montreal, Canada). All mammalian cell lines were cultured under standard conditions at 37 °C and 5% CO2 in DMEM (Thermo) supplemented with 10% FBS (v/v) and penicillin-streptomycin (Thermo). Recombination cloning-compatible U2OS cells were generated using the Flp-In T-Rex Core Kit (Thermo) according to the manufacturer’s instructions and maintained under selection using Blasticidin (Invivogen) and Zeocin (Thermo). To generate cell lines stably expressing GFP-VCF1, U2OS Flp-In T-Rex cells (Thermo) were co-transfected with GFP-VCF1 constructs and pOG44 (Thermo) plasmids, followed by selection with Hygromycin (Invitrogen). Single clones were carefully screened for uniform expression of ectopic GFP-VCF1 at low levels and maintained under selection with Blasticidin and Hygromycin. To induce GFP-VCF1 expression, cells were treated with Doxycycline (DOX) (0.5 µg/ml) for 16 h. U2OS cell lines stably expressing Ub(G76V)-GFP or Ub(G76V)-GFP-20AA were described previously. A U2OS cell line stably expressing Ub(G76V)-GFP-NES was generated under G418 (Invivogen) selection. Clones with low baseline GFP expression were visually screened for low basal GFP expression. All cell lines used in this study were regularly tested negative for mycoplasma infection and were not authenticated.
(§3) Immunoblotting was performed as previously described. Immunoprecipitation (IP) of HA-tagged proteins was performed using Anti-HA Affinity matrix (Roche) under denaturing conditions, unless otherwise stated. GFP-trap and […] Fab-trap agarose (Chromotek) were used according to manufacturer’s instructions. Cell lysis was performed using RIPA buffer (140 mM NaCl; 10 mM Tris-HCl, pH 8.0; 0.1% sodium deoxycholate; 1% Triton X-100; 0.1% SDS; 1 mM EDTA; 0.5 mM EGTA) or EBC buffer (50 mM Tris, pH 7.5; 150 mM NaCl; 1 mM EDTA; 0.5% NP-40, 1 mM DTT). IPs were washed in non-denaturing buffer (50 mM Tris-HCl, pH 7.5; 150 mM NaCl; 0.5 mM EDTA). Cell lysis and IP under partially denaturing conditions were performed using denaturing buffer (20 mM Tris-HCl, pH 7.5; 50 mM NaCl; 0.5% sodium deoxycholate; 0.5% NP-40; 0.5% SDS; 1 mM EDTA). All lysis and wash buffers were supplemented with 1 mM fresh PMSF Protease Inhibitor (Thermo), complete EDTA-free protease inhibitor Cocktail Tablets (Roche), 1.25 mM N-ethylmaleimide (Sigma) and 50 µM PR-619 (Calbiochem).
(§4) GFP-Trap agarose (Chromotek) pulldowns were subjected to partial on-bead digestion for peptide elution, by addition of 100 µl of elution buffer (50 mM Tris, pH 7.5; 2 M urea; 2 mM DTT; 20 µg/ml trypsin) and incubation at 37 °C for 30 min. To carry out alkylation, 25 mM CAA was added to the samples, which were then left to digest overnight at room temperature. Digestion was halted by introducing 1% TFA. Purification and desalting of peptides were done using SDB-RPS StageTips. This process required preparing two layers of SDB-RPS with 100 µl of wash buffer (0.2% TFA in H2O), onto which the peptides were loaded. After centrifugation for 5 min at 500 × g, peptides were washed using 150 µl wash buffer, eluted with 50 µl elution buffer (80% ACN; 1% ammonia) and vacuum-dried.
(§5) Liquid chromatography-mass spectrometry (LC-MS) analysis was conducted using an EASY-nLC-1200 system (Thermo Fisher Scientific), coupled with a timsTOF Pro spectrometer and a nano-electrospray ion source (Bruker Daltonik). […]

[2] = tested on: GFP-VCF1 WT / N167A interactome, U2OS cells; test: GFP IP mass spectrometry, comparison of VCF1 WT and N167A interactomes (WT/N167A); assay type: binding, human; details: GFP-VCF1 WT / N167A IPs, partially denaturing RIPA buffer
Protocol: as §2, §3, §4, §5

p97 = test: GFP IP of GFP-VCF1 alanine mutants from U2OS cells; assay type: binding, human; details: full-length GFP-VCF1, U2OS
Protocol: as §3

[3] = tested on: p97 (His6-p97 WT and N-domain mutants); test: Peptide/protein pulldown with purified WT or mutant His6-p97 (VRM, VIM, VBM, p47); assay type: binding, human; details: peptides on StrepTactin agarose (p47: protein), purified WT or mutant His6-p97, RIPA wash
Protocol: All in vitro binding experiments were performed in EBC or RIPA buffer as indicated. Recombinant Biotin-tagged K48-linked poly-ubiquitin chains (2−7) and K48-linked poly-ubiquitin chains (2−16) were purchased from R&D Systems and Enzo Life Science, respectively. Recombinant proteins were incubated with Strep-Tactin Sepharose (IBA), Glutathione agarose (Gold Biotechnology) or […] Fab-trap agarose (ChromoTek) overnight on an end-over-end rotator at 4 °C, washed six times with EBC or RIPA buffer, and resuspended in 2×Laemmli sample buffer. For p97, VCF1 or p47 pulldowns, antibodies (0.5 µg/sample) were coupled to agarose beads, incubated with recombinant proteins or cell lysates and washed with the indicated buffer. To assess p97-UFD1-NPL4 binding to ubiquitylated proteins in total cell extracts, U2OS cells were lysed in EBC buffer supplemented with protease and phosphatase inhibitors, sonicated and incubated on ice for 10 min. Lysates were cleared by centrifugation for 10 min at 16,100 × g. […]
Peptides were coupled to beads for a minimum of 2 h at 4 °C with rotation, blocked in BSA (New England Biolabs) and washed three times for 1 min, before incubation overnight at 4 °C with whole cell lysate or purified proteins. Beads were then washed three times for 1 min and bound material was eluted in 2×Laemmli sample buffer and analyzed by immunoblotting.

[4] = tested on: GFP-VCF1 WT interactome, U2OS cells; test: GFP IP mass spectrometry of VCF1-interacting proteins, partially denaturing RIPA buffer (+DOX/-DOX); assay type: binding, human
Protocol: as §1, with “selection. Clones with low baseline GFP expression were visually screened for low basal GFP expression.” for “selection.”

[5] = tested on: p97 with poly-ubiquitylated mEos3.2; test: In vitro p97 unfoldase assay (mEos3.2); assay type: biochemical, human; details: p97 100 nM hexamer, VCF1 300 nM, substrate 35 nM, 37 °C
Protocol: Di-ubiquitin-fused mEos3.2 fluorescent protein (diUb-mEos3.2) and ubiquitylation cascade proteins mUbe1, gpc78-ubc7 fusion and ubiquitin were recombinantly expressed in E. coli and purified as described previously. diUb-mEos3.2 substrate was enzymatically polyubiquitylated as described previously. […] The unfolding activity of p97 was monitored in vitro by measuring the decrease in diUb^n-mEos3.2 fluorescence. For this, diUb^n-mEos3.2 (35 nM), p97 (100 nM hexamer), UFD1-NPL4 (500 nM) and VCF1 (300 nM) were mixed as indicated in Eos assay buffer (50 mM HEPES, pH 7.5; 150 mM KCl; 2 mM MgCl2; 5% glycerol; 1 mM DTT) and pre-warmed to 37 °C for 5 min before ATP (2 mM) was added to start the reaction. Unfolding of red mEos3.2 fluorescence was measured every 15 s in a Varian Cary Eclipse spectrofluorometer (excitation: 500 nm; emission: 520 nm) and normalized to the first value after addition of ATP.

[6] = tested on: p97-UFD1-NPL4 binding to K48-Ub2-7; test: FLAG IP: p97-UFD1-NPL4 binding to K48-linked ubiquitin chains, purified proteins; assay type: biochemical, human; details: purified proteins, FLAG IP
Protocol: (§6) All in vitro binding experiments were performed in EBC or RIPA buffer as indicated. Recombinant Biotin-tagged K48-linked poly-ubiquitin chains (2−7) and K48-linked poly-ubiquitin chains (2−16) were purchased from R&D Systems and Enzo Life Science, respectively. Recombinant proteins were incubated with Strep-Tactin Sepharose (IBA), Glutathione agarose (Gold Biotechnology) or […] Fab-trap agarose (ChromoTek) overnight on an end-over-end rotator at 4 °C, washed six times with EBC or RIPA buffer, and resuspended in 2×Laemmli sample buffer. For p97, VCF1 or p47 pulldowns, antibodies (0.5 µg/sample) were coupled to agarose beads, incubated with recombinant proteins or cell lysates and washed with the indicated buffer. To assess p97-UFD1-NPL4 binding to ubiquitylated proteins in total cell extracts, U2OS cells were lysed in EBC buffer supplemented with protease and phosphatase inhibitors, sonicated and incubated on ice for 10 min. Lysates were cleared by centrifugation for 10 min at 16,100 × g. Cell lysate (40 µg) was added to recombinant proteins in EBC buffer, incubated overnight on the rotator with […] Fab-trap agarose (ChromoTek), and beads were washed six times.

[7] = tested on: p97-UFD1-NPL4 binding to ubiquitylated proteins; test: FLAG IP: p97-UFD1-NPL4 binding to ubiquitylated proteins in U2OS cell extracts; assay type: biochemical, human; details: U2OS total cell extracts, EBC buffer
Protocol: as §6

Substance: 5’-AGCCAGCUCUUCCAUCUUA-3’ [p47 siRNA]
effect on Ub(G76V)-GFP level (Ub(G76V)-GFP, U2OS cells): had no effect

Substance: 40S ribosomal protein S29 [RPS29]
Relative protein level (log2) WT/noDox [1]: 2.611 log2

Substance: 60S ribosomal protein L19 [RPL19]
Relative protein level (log2) WT/noDox [1]: 2.902 log2

Substance: AHNAK
Relative protein level (log2) WT/MUT [2]: 2.811 log2

Substance: FLNA
Relative protein level (log2) WT/MUT [2]: 3.526 log2

Substance: G6PD
Relative protein level (log2) WT/MUT [2]: 4.291 log2

Substance: H174: alanine mutant of residue H174 in full-length VCF1
effect of alanine scan on p97 binding (p97): essential for VCF1 binding to p97

Substance: Histone H3.1 [HIST1H3A;HIST2H3A;HIST3H3;H3F3A;H3F3B]
Relative protein level (log2) WT/noDox [1]: 5.652 log2

Substance: L170: alanine mutant of residue L170 in full-length VCF1
effect of alanine scan on p97 binding (p97): essential for VCF1 binding to p97

dependence of binding on p97 Y143 [3]: required for binding to all three motifs
Substance: NLTSEELRKRREAYFEKQQQK [VBM, biotinylated VBM peptide of ATXN3 aa275-295]

dependence of binding on p97 Y143 [3]: required for binding to all three motifs
Substance: PTPDLEEKRAKLAEAAERRQKEAAS [VIM, biotinylated VIM peptide of SVIP aa14-39]

Substance: Protein FAM104A
Relative protein level (log2) WT/noDox [4]: 3.522 log2
Relative protein level (log2) WT/noDox [1]: 4.7326 log2

Substance: Transitional endoplasmic reticulum ATPase [VCP]
Relative protein level (log2) WT/noDox [4]: 4.192 log2
Relative protein level (log2) WT/noDox [1]: 3.764 log2
Relative protein level (log2) WT/MUT [2]: 7.367 log2

Substance: VCF1-p97 complex: complex of VCF1 and p97
unfolding of poly-ubiquitylated mEos3.2 without UFD1-NPL4 [5]: unable to unfold a poly-ubiquitylated fluorescent model substrate (mEos3.2)

effect on p97-UFD1-NPL4 binding to K48 ubiquitin chains [6]: abrogated
Substance: mutation of the VRM: VCF1 with mutated VRM (N167A by Fig. 5c reply)
effect on p97-UFD1-NPL4 binding to ubiquitylated proteins [7]: abrogated
